Measured values from US11285135B2 (AMGEN INC., priority 2016, dated 2022).
Where two headings read alike, the source gives them in different places.

Legend:
[1] = biological target: GDP-bound BRAS protein (aa 1-169), containing both G12C and C118A amino acid substitutions (Homo sapiens, UniProt P01116, C118A/G12C); assay: Coupled Nucleotide Exchange Assay (SOS-mediated nucleotide exchange, AlphaScreen); type: biochemical; conditions: 2 hours compound pre-incubation
Summary of the method: (§1)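 AlphaScreen signal after SOS (aa 564-1049)/GTP-driven exchange (1 h) on GDP-loaded His-[…] G12C/C118A (aa 1-169), following a 2 h compound pre-incubation in HEPES pH 7.4 buffer with 10 mM MgCl2 and 0.01% Triton X-100. IC50s fitted by 4-parameter logistic model.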

[2] = biological target: GDP-bound protein (aa 1-169), containing both G12C and C118A amino acid substitutions (Homo sapiens, UniProt P01116, C118A/G12C); assay: as above; type: biochemical; conditions: 2 hours compound pre-incubation
Sequence of GDP-bound protein (aa 1-169), containing both G12C and C118A amino acid substitutions (P01116 1-169 isoform P01116-2 G12C/C118A): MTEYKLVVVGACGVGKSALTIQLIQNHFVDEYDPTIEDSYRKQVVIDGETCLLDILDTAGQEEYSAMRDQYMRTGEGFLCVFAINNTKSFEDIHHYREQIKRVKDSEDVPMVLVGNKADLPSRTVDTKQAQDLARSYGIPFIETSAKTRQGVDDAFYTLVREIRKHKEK
Summary of the method: as §1

[3] = system: Phosphorylation of ERK½ in MIA PaCa-2 cells; assay: Phospho-ERK½ MSD Assay in MIA PaCa-2 cells; type: cell-based; conditions: 4 hours compound treatment, 10 ng/mL EGF for 10 min, read-out: p-ERK IC50 (MIA PaCa-2)
Summary of the method: (§2)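 MIA PaCa-2 or A549 cells (25,000/well, RPMI with 10% FBS) exposed to compound titration for 4 h at 37 °C, then stimulated with 10 ng/mL EGF for 10 min and lysed in RIPA. Phospho-ERK1/2 quantified by MSD whole-cell lysate immunoassay; IC50 from 4-parameter logistic fit.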

[4] = system: Phosphorylation of ERK½ in A549 cells; assay: Phospho-ERK½ MSD Assay in A549 cells; type: cell-based; conditions: 4 hours compound treatment, 10 ng/mL EGF for 10 min, read-out: p-ERK IC50 (A549)
Summary of the method: as §2

[5] = Homo sapiens, MIA PaCa-2, MIA PaCa-2 cells

Sequence of GDP-bound BRAS protein (aa 1-169), containing both G12C and C118A amino acid substitutions (P01116 1-169 isoform P01116-2 G12C/C118A): as above

| IC50 [1] [µM] | Coupled exchange IC50 [2] [µM] | IC50 ([3]; MIA PaCa-2 cells) [µM] | IC50 ([4]; A549 cells) [µM] | IC50 [3, 5] [µM] | IC50 ([4]; Homo sapiens, A549, A549 cells) [µM] | SMILES |
| --- | --- | --- | --- | --- | --- | --- |
| 0.289 |  |  |  |  |  | C=CC(=O)N1CCN(c2nc(=O)n(-c3ccccc3C(C)C)c3cc(Br)c(Cl)cc23)[C@@H](C)C1 [Example 9-2, 7-bromo-6-chloro-4-((2S)-2-methyl-4-(2-propenoyl)-1-piperazinyl)-1-(2-(2-propanyl)phenyl)-2(1H)-quinazolinone] |
|  | 0.151 | 0.016 | 21.7 |  |  | C=CC(=O)N1CCN(c2nc(=O)n(-c3ccccc3C(C)C)c3cc(-c4c(C)ccc5[nH]ncc45)c(Cl)cc23)CC1 (single isomer, unassigned) [Example 11-1-2, 6-chloro-7-(5-methyl-1H-indazol-4-yl)-1-(2-(2-propanyl)phenyl)-4-(4-(2-propenoyl)-1-piperazinyl)-2(1H)-quinazolinone] |
|  | 1.08 |  |  | 3.87 | > 33.3 | C=CC(=O)N1C[C@@H](C)N(c2snc3c(F)c(-c4cc(O)cc5ccccc45)c(Cl)cc23)[C@H](C)C1 (racemic) [Example 2-7, 1-(4-(5-chloro-7-fluoro-6-(3-hydroxy-1-naphthalenyl)-2,1-benzothiazol-3-yl)-3,5-dimethyl-1-piperazinyl)-2-propen-1-one] |
|  | 1.35 | 7.48 | 3.7 |  |  | C=CC(=O)N1CCN(c2snc3nc(-c4cc(O)cc5ccccc45)c(Cl)cc23)C(C)C1 (single isomer, unassigned) [Example 2-5-2, 1-((3R)-4-(5-chloro-6-(3-hydroxy-1-naphthalenyl) [1,2]thiazolo[3,4-b]pyridin-3-yl)-3-methyl-1-piperazinyl)-2-propen-1-one or 1-((3S)-4-(5-ch1oro-6-(3-hydroxy-1-naphthalenyl) [1,2]thiazolo[3,4-b]pyridin-3-yl)-3-methyl-1-piperazinyl)-2-propen-1-one] |
|  | 5.20 |  |  | > 100 | > 100 | C=CC(=O)N1CCN(c2nnc(Nc3ccccc3)c3cc(-c4c(O)cccc4F)c(Cl)cc23)CC1 [Example 13, 1-(4-(4-Anilino-7-chloro-6-(2-fluoro-6-hydroxyphenyl)-1-phthalazinyl)-1-piperazinyl)-2-propen-1-one] |
|  | 0.302 | 2.35 | > 100 |  |  | C=CC(=O)N1CCN(c2snc3c(F)c(-c4cc(O)cc5ccccc45)c(Cl)cc23)CC1 (single isomer, unassigned) [Example 3-1-2, 1-(4-(5-chloro-7-fluoro-6-(3-hydroxy-1-naphthalenyl)-2,1-benzothiazol-3-yl)-1-piperazinyl)-2-propen-1-one] |
|  | 1.68 |  |  | 33.6 | > 100 | C=CC(=O)N1CCN(c2nnc(-c3cccc4[nH]ccc34)c3cc(-c4c(O)cccc4F)c(Cl)cc23)CC1 [Example 10-9, 1-(4-(7-chloro-6-(2-fluoro-6-hydroxyphenyl)-4-(1H-indol-4-yl)-1-phthalazinyl)-1-piperazinyl)-2-propen-1-one] |
|  | 0.484 |  |  | 1.39 | > 33.3 | C=CC(=O)N1CCN(c2nc(=O)n(CC3CC3)c3nc(-c4c(O)cccc4F)c(Cl)cc23)CC1 [Example 38, 6-chloro-1-(cyclopropylmethyl)-7-(2-fluoro-6-hydroxyphenyl)-4-(4-(2-propenoyl)-1-piperazinyl)pyrido[2,3-d]pyrimidin-2(1H)-one] |
|  | 1.78 |  |  | 5.03 | > 100 | C=CC(=O)N1CCN(c2snc3c(F)c(-c4c(O)ccc5ccccc45)c(Cl)cc23)CC1 [Example 1-14, 1-(4-(5-chloro-7-fluoro-6-(2-hydroxy-1-naphthalenyl)-2,1-benzothiazol-3-yl)-1-piperazinyl)-2-propen-1-one] |

| SMILES | IC50 [1] [µM] | Coupled exchange IC50 [2] [µM] | IC50 ([3]; MIA PaCa-2 cells) [µM] | IC50 ([4]; A549 cells) [µM] | IC50 [3, 5] [µM] | IC50 ([4]; Homo sapiens, A549, A549 cells) [µM] |
| --- | --- | --- | --- | --- | --- | --- |
| C=CC(=O)N1CCN(c2nnc(-c3ccccc3C(C)C)c3cc(-c4c(O)cccc4F)c(Cl)cc23)CC1 [Example 10-4, 1-(4-(7-chloro-6-(2-fluoro-6-hydroxyphenyl)-4-(2-(2-propanyl)phenyl)-1-phthalazinyl)-1-piperazinyl)-2-propen-1-one] |  | 0.235 |  |  | 3.47 | > 100 |
